From patent US20250129069A1, “TRIAZOLO WRN INHIBITORS” (Nimbus Wadjet, Inc., priority 2023, published 2025)
Where two headings read alike, the source gives them in different places.

What was measured:
[1] = tested on: p21 induction in HCT 116 cells; experiment: p21 induction in cells (In-Cell Western, p21/GAPDH ratio); format: cell-based; conditions: 24 h compound incubation, read-out: p21_EC50
How it was run: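 EC50 values come from nonlinear fits of percent activation, defined by the 800/700 nm p21-to-GAPDH ratio scaled between DMSO (low) and internal WRN inhibitor (high) controls. In-Cell Western read after 24 h compound exposure of HCT 116 cells at 37° C. Duplicate 11-point series, 2-fold steps, usually starting at 10 μM.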

[2] = target: human Werner helicase (WRN, amino acids 517-1235 with L1074F point mutation) (Homo sapiens (Human), UniProt Q14191, L1074F); experiment: WRN (BV08) ADP-Glo assay; format: biochemical; conditions: human WRN (aa 517-1235, L1074F), read-out: ADP-Glo_hWRN_IC50
How it was run: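 ADP-Glo luminescence read after 60 min, 25 °C reaction of 0.15 nM WRN (517-1235, L1074F, Sf9-expressed, tag removed) with 0.1 nM DNA duplex and 5 μM ATP, following 15 min compound preincubation; 20 mM Bicine pH 7.5, 1% DMSO. IC50 from 3- or 4-parameter fit of % inhibition.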

Sequence of human Werner helicase (WRN, amino acids 517-1235 with L1074F point mutation) (Q14191 other isoform, or with tags, fused parts or gaps L1074F (already in the parent)): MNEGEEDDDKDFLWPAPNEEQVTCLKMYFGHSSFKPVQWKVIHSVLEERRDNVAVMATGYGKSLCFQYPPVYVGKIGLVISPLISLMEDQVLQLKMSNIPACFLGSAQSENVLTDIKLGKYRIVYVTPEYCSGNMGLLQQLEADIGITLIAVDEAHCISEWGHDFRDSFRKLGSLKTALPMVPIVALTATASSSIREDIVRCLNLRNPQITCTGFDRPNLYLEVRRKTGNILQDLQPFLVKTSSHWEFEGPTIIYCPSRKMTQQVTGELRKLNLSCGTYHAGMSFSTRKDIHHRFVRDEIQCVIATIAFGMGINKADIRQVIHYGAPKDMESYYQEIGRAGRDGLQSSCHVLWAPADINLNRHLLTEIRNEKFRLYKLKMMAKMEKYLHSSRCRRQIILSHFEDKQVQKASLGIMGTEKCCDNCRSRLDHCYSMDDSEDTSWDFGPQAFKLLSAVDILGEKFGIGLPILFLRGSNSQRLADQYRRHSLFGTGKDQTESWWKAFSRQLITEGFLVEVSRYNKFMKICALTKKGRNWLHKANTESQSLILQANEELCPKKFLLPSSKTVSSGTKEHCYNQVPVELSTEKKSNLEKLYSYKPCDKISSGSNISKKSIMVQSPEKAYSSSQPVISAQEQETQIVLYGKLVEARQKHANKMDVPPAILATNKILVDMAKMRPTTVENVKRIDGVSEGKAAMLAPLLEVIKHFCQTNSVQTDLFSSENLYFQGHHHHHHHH

| EC50 ([1]; Homo sapiens) [nM] | IC50 [2] [nM] | EC50 [1] [nM] | Compound |
| --- | --- | --- | --- |
| ≤ 500 | 5 to 50 |  | CCc1c(N2CCN(C(=O)c3ncnc(C)c3O)[C@H]3CC[C@@H]32)c(=O)c2nn(-c3ccnc(C)c3)nc2n1CC(=O)NC12CC(C3CC3)(C1)C2 [Compound I-19, N-(3-cyclopropylbicyclo[1.1.1]pentan-1-yl)-2-(5-ethyl-6-((1S,6S)-5-(5-hydroxy-6-methylpyrimidine-4-carbonyl)-2,5-diazabicyclo[4.2.0]octan-2-yl)-2-(2-methylpyridin-4-yl)-7-oxo-2,7-dihydro-4H-[1,2,3]triazolo[4,5-b]pyridin-4-yl)acetamide] |
| ≤ 500 | ≤ 5 |  | CCc1c(N2CCN(C(=O)c3ncnc(C)c3O)[C@H]3CC[C@@H]32)c(=O)c2nn(C3=CCOCC3)nc2n1CC(=O)Nc1ccc(C(F)(F)F)cc1Cl [Compound I-20, N-(2-chloro-4-(trifluoromethyl)phenyl)-2-(2-(3,6-dihydro-2H-pyran-4-yl)-5-ethyl-6-((1S,6S)-5-(5-hydroxy-6-methylpyrimidine-4-carbonyl)-2,5-diazabicyclo[4.2.0]octan-2-yl)-7-oxo-2,7-dihydro-4H-[1,2,3]triazolo[4,5-b]pyridin-4-yl)acetamide] |
| ≤ 500 | 5 to 50 |  | CCc1c(N2CCN(C(=O)c3ncnc(C)c3O)[C@H]3CC[C@@H]32)c(=O)c2nn(-c3ccnc(OC)c3)nc2n1CC(=O)NC1CC2(CCC2)C1 [Compound I-21, 2-(5-ethyl-6-((1S,6S)-5-(5-hydroxy-6-methylpyrimidine-4-carbonyl)-2,5-diazabicyclo[4.2.0]octan-2-yl)-2-(2-methoxypyridin-4-yl)-7-oxo-2,7-dihydro-4H-[1,2,3]triazolo[4,5-b]pyridin-4-yl)-N-(spiro[3.3]heptan-2-yl)acetamide] |
| ≤ 500 | 5 to 50 |  | CCc1c(N2CCN(C(=O)c3ncnc(C)c3O)[C@H]3CC[C@@H]32)c(=O)c2nn(C3=CCOCC3)nc2n1CC(=O)NC12CC(C3CC3)(C1)C2 [Compound I-26, N-(3-cyclopropylbicyclo[1.1.1]pentan-1-yl)-2-(2-(3,6-dihydro-2H-pyran-4-yl)-5-ethyl-6-((1S,6S)-5-(5-hydroxy-6-methylpyrimidine-4-carbonyl)-2,5-diazabicyclo[4.2.0]octan-2-yl)-7-oxo-2,7-dihydro-4H-[1,2,3]triazolo[4,5-b]pyridin-4-yl)acetamide] |
| ≤ 500 | 5 to 50 |  | CCc1c(N2CCN(C(=O)c3ncnc(C)c3O)[C@H]3CC[C@@H]32)c(=O)c2nn(-c3ccnc(OC)c3)nc2n1CC(=O)NC12CC(C(C)(F)F)(C1)C2 [Compound I-27, N-(3-(1,1-difluoroethyl)bicyclo[1.1.1]pentan-1-yl)-2-(5-ethyl-6-((1S,6S)-5-(5-hydroxy-6-methylpyrimidine-4-carbonyl)-2,5-diazabicyclo[4.2.0]octan-2-yl)-2-(2-methoxypyridin-4-yl)-7-oxo-2,7-dihydro-4H-[1,2,3]triazolo[4,5-b]pyridin-4-yl)acetamide] |
| 500 to 2000 | 5 to 50 |  | CCc1c(N2CCN(C(=O)c3ncnc(C)c3O)[C@H]3CC[C@@H]32)c(=O)c2nn(C3CC3)nc2n1CC(=O)NC12CC(C3CC3)(C1)C2 [Compound I-32, 2-{2-cyclopropyl-5-ethyl-6-[(1S,6S)-5-(5-hydroxy-6-methylpyrimidine-4-carbonyl)-2,5-diazabicyclo[4.2.0]octan-2-yl]-7-oxo-2H,4H,7H-[1,2,3]triazolo[4,5-b]pyridin-4-yl}-N-{3-cyclopropylbicyclo[1.1.1]pentan-1-yl}acetamide] |

Continued, compound first:

| Compound | EC50 ([1]; Homo sapiens) [nM] | IC50 [2] [nM] | EC50 [1] [nM] |
| --- | --- | --- | --- |
| CCc1c(N2CCN(C(=O)c3ncnc(C)c3O)[C@H]3CC[C@@H]32)c(=O)c2nn(-c3ccccn3)nc2n1CC(=O)NC12CC(C(C)C)(C1)C2 [Compound I-22, 2-(5-ethyl-6-((1S,6S)-5-(5-hydroxy-6-methylpyrimidine-4-carbonyl)-2,5-diazabicyclo[4.2.0]octan-2-yl)-7-oxo-2-(pyridin-2-yl)-2,7-dihydro-4H-[1,2,3]triazolo[4,5-b]pyridin-4-yl)-N-(3-isopropylbicyclo[1.1.1]pentan-1-yl)acetamide] | ≤ 500 | 5 to 50 |  |
| CCc1c(N2CCN(C(=O)c3c(OC)ncc(C)c3O)[C@H]3CC[C@@H]32)c(=O)c2nn(C3=CCOCC3)nc2n1CC(=O)Nc1ccc(C(F)(F)F)cc1Cl [Compound I-23, N-(2-chloro-4-(trifluoromethyl)phenyl)-2-(2-(3,6-dihydro-2H-pyran-4-yl)-5-ethyl-6-((1S,6S)-5-(4-hydroxy-2-methoxy-5-methylnicotinoyl)-2,5-diazabicyclo[4.2.0]octan-2-yl)-7-oxo-2,7-dihydro-4H-[1,2,3]triazolo[4,5-b]pyridin-4-yl)acetamide] | ≤ 500 | ≤ 5 |  |
| CCc1c(N2CCN(C(=O)c3c(OC)ncc(C)c3O)[C@H]3CC[C@@H]32)c(=O)c2nn(C3=CCOCC3)nc2n1CC(=O)NC12CC(C(C)C)(C1)C2 [Compound I-24, 2-(2-(3,6-dihydro-2H-pyran-4-yl)-5-ethyl-6-((1S,6S)-5-(4-hydroxy-2-methoxy-5-methylnicotinoyl)-2,5-diazabicyclo[4.2.0]octan-2-yl)-7-oxo-2,7-dihydro-4H-[1,2,3]triazolo[4,5-b]pyridin-4-yl)-N-(3-isopropylbicyclo[1.1.1]pentan-1-yl)acetamide] | ≤ 500 | 5 to 50 |  |
| CCc1c(N2CCN(C(=O)c3ncnc(C)c3O)[C@H]3CC[C@@H]32)c(=O)c2nn(-c3cnn(C4CC4)c3)nc2n1CC(=O)NC12CC(C(C)C)(C1)C2 [Compound I-25, 2-(2-(1-cyclopropyl-1H-pyrazol-4-yl)-5-ethyl-6-((1S,6S)-5-(5-hydroxy-6-methylpyrimidine-4-carbonyl)-2,5-diazabicyclo[4.2.0]octan-2-yl)-7-oxo-2,7-dihydro-4H-[1,2,3]triazolo[4,5-b]pyridin-4-yl)-N-(3-isopropylbicyclo[1.1.1]pentan-1-yl)acetamide] | ≤ 500 | 5 to 50 |  |
| CCc1c(N2CCN(C(=O)c3ncnc(C)c3O)[C@H]3CC[C@@H]32)c(=O)c2nn(-c3ccnc(OC)c3)nc2n1CC(=O)NC12CC(C3CCC3)(C1)C2 [Compound I-28, N-(3-cyclobutylbicyclo[1.1.1]pentan-1-yl)-2-(5-ethyl-6-((1S,6S)-5-(5-hydroxy-6-methylpyrimidine-4-carbonyl)-2,5-diazabicyclo[4.2.0]octan-2-yl)-2-(2-methoxypyridin-4-yl)-7-oxo-2,7-dihydro-4H-[1,2,3]triazolo[4,5-b]pyridin-4-yl)acetamide] | ≤ 500 | ≤ 5 |  |
| CCc1c(N2CCN(C(=O)c3ncnc(C)c3O)[C@H]3CC[C@@H]32)c(=O)c2nn(-c3ccnc(OC)c3)nc2n1CC(=O)NC12CC(OC(F)(F)F)(C1)C2 [Compound I-29, 2-(5-ethyl-6-((1S,6S)-5-(5-hydroxy-6-methylpyrimidine-4-carbonyl)-2,5-diazabicyclo[4.2.0]octan-2-yl)-2-(2-methoxypyridin-4-yl)-7-oxo-2,7-dihydro-4H-[1,2,3]triazolo[4,5-b]pyridin-4-yl)-N-(3-(trifluoromethoxy)bicyclo[1.1.1]pentan-1-yl)acetamide] | ≤ 500 | 5 to 50 |  |
| CCc1c(N2CCN(C(=O)c3ncnc(C)c3O)[C@H]3CC[C@@H]32)c(=O)c2nn(-c3ccnc(OC)c3)nc2n1CC(=O)NC12CC(C3CC3)(C1)C2 [Compound I-30, N-{3-cyclopropylbicyclo[1.1.1]pentan-1-yl}-2-{5-ethyl-6-[(1S,6S)-5-(5-hydroxy-6-methylpyrimidine-4-carbonyl)-2,5-diazabicyclo[4.2.0]octan-2-yl]-2-(2-methoxypyridin-4-yl)-7-oxo-2H,4H,7H-[1,2,3]triazolo[4,5-b]pyridin-4-yl}acetamide] |  | 5 to 50 | ≤ 500 |
| CCc1c(N2CCN(C(=O)c3ncnc(C)c3O)[C@H]3CC[C@@H]32)c(=O)c2nn(C3=CCOCC3)nc2n1CC(=O)NC12CC(C3CC3)(C1)C2 [Compound I-31, N-{3-cyclopropylbicyclo[1.1.1]pentan-1-yl}-2-[2-(3,6-dihydro-2H-pyran-4-yl)-5-ethyl-6-[(1S,6S)-5-(5-hydroxy-6-methylpyrimidine-4-carbonyl)-2,5-diazabicyclo[4.2.0]octan-2-yl]-7-oxo-2H,4H,7H-[1,2,3]triazolo[4,5-b]pyridin-4-yl]acetamide] |  | 5 to 50 | ≤ 500 |
| CCc1c(N2CCN(C(=O)c3ncnc(C)c3O)[C@H]3CC[C@@H]32)c(=O)c2nn(-c3cc(C)n(C)n3)nc2n1CC(=O)NC12CC(C3CC3)(C1)C2 [Compound I-34, N-{3-cyclopropylbicyclo[1.1.1]pentan-1-yl}-2-[2-(1,5-dimethyl-1H-pyrazol-3-yl)-5-ethyl-6-[(1S,6S)-5-(5-hydroxy-6-methylpyrimidine-4-carbonyl)-2,5-diazabicyclo[4.2.0]octan-2-yl]-7-oxo-2H,4H,7H-[1,2,3]triazolo[4,5-b]pyridin-4-yl]acetamide] | ≤ 500 | 5 to 50 |  |
| CCc1c(N2CCN(C(=O)c3ncnc(C)c3O)[C@H]3CC[C@@H]32)c(=O)c2nn(-c3cc(C)n(C)n3)nc2n1CC(=O)NC12CC(C(C)C)(C1)C2 [Compound I-35, 2-[2-(1,5-dimethyl-1H-pyrazol-3-yl)-5-ethyl-6-[(1S,6S)-5-(5-hydroxy-6-methylpyrimidine-4-carbonyl)-2,5-diazabicyclo[4.2.0]octan-2-yl]-7-oxo-2H,4H,7H-[1,2,3]triazolo[4,5-b]pyridin-4-yl]-N-[3-(propan-2-yl)bicyclo[1.1.1]pentan-1-yl]acetamide] | ≤ 500 | 5 to 50 |  |
